How the values were obtained:
[1] = test system: spleen cells activated by anti-CD3 and anti-CD28 antibodies; test: IL-2 expression inhibition in spleen cells activated by anti-CD3 and anti-CD28 antibodies (ELISA); format: cell-based, mouse; conditions: for IL-2 expression inhibitory efficiency compared to WT: 0.5, 1, 2 or 5 μM
Experimental: The spleen cells activated by anti-CD3 and anti-CD28 antibodies were treated with 1 μM of each of PBS, the dNP2-ctCTLA-4 fusion product and the TAT-ctCTLA-4 fusion product, and IL-2 expression inhibitory efficiency was measured by ELISA and shown in FIG. 5.
First, a 96-well plate was coated at a concentration of 0.1 μg/well with anti-CD3 (anti-mouse CD3) and anti-CD28 (anti-mouse CD28) monoclonal antibodies at 37° C. for 5 hours, spleen cells were isolated from 7-week-old C57BL/6, and the isolated spleen cells were suspended to be single cells. The spleen cells suspended through the process were seeded at 2.5×10^5 on each well coated with anti-CD3 (anti-mouse CD3) and anti-28 (anti-mouse CD28) monoclonal antibodies, and were treated with 1 μM PBS, the dNP2-ctCTLA-4 fusion product and the TAT-ctCTLA-4 fusion product, and then activated for 24 hours.
The spleen cells activated by the anti-CD3 and anti-CD28 antibodies were each treated with the dNP2-ctCTLA-4 fusion product and the dNP2-EGFP fusion product, and IL-2 expression inhibitory efficiency was measured by ELISA and shown in FIG. 6A. At this time, ELISA was conducted using the kit produced by Biolegend Corporation in accordance with the standard protocol provided by the manufacturer. In addition, spleen cells activated by PMA/ionomycin were treated with the dNP2-ctCTLA-4 fusion product and the dNP2-EGFP fusion product, and IL-2 expression inhibitory efficiency was measured by ELISA and is shown in FIG. 6B.
At this time, the activated spleen cells were activated with the anti-CD3/CD28 antibody or PMA/ionomycin in the presence of 1 μM PBS, the dNP2-ctCTLA-4 fusion product or dNP2-EGFP fusion product for 24 hours.
The spleen cells activated by the anti-CD3 and anti-CD28 antibodies were each treated with 0.5, 1, 2 or 5 μM WT, 1YF, 2YF and DYF, and IL-2 expression inhibitory abilities were measured by ELISA and are shown in FIG. 8.
At this time, the activated spleen cells were activated with anti-CD3/CD28 antibody in the presence of 1 μM PBS, 0.5, 1, 2 or 5 μM WT, 1YF, 2YF, DYF for 24 hours.
The spleen cells activated by anti-CD3 and anti-CD28 antibodies were each treated with 0.1, 0.5, 1, 2 or 5 μM dNP2-TAMRA fusion product, dNP2-CTLA-4 fusion product and dNP2-ctCTLA-4-fm3 fusion product, and IL-2 expression inhibitory efficiency was measured by ELISA and is shown in FIG. 11. At this time, the activated spleen cells were activated with the anti-CD3/CD28 antibody in the presence of 1 μM PBS, 0.1, 0.5, 1, 2 or 5 μM dNP2-TAMRA fusion product, dNP2-CTLA-4 fusion product and dNP2-ctCTLA-4-fm3 fusion product for 24 hours.

[2] = test system: primary mouse CD4-T-cells; test: Intracellular transfer efficiency of ctCTLA-4 peptide and CPP-ctCTLA-4 fusion products in mouse spleen cells; format: cell-based; conditions: 1 μM, one hour, anti-HA staining
Experimental: Jurkat T-cells were cultured at a density of 5.0×10^5 cells/well on a 24-well plate in RPMI 1640 medium. After the cells were seeded, respective proteins were added at designated times. After culturing, the cells were collected and washed three times with phosphate buffered saline (PBS). Intracellular fluorescence was analyzed with a fluorescence-activated cell sorting (FACS) Canto II flow cytometer (BD Bioscience) and data were analyzed using FlowJo software (Tree Star, INC.). The spleen isolated from the 6-week-old C57BL/6 mice were loaded on a 60 mm×15 mm cell culture dish containing 3 ml of PBS. A single cell suspension was physically prepared using a cell strainer having pores with a size of […], 10 ml of fresh PBS was added thereto and the resulting mixture was centrifuged. […]
Specifically, the transfer efficiency was measured using “3) In vitro transfer efficiency” in the test method, which will be briefly described below.
Mouse spleen cells were cultured together with 1 μM of a ctCTLA-4 peptide, or a dNP2-ctCTLA-4 or Hph-1-ctCTLA-4 fusion product for one hour, and the ctCTLA-4 peptide or CPP-linked ctCTLA-4 fusion products, which had been transferred into cells, were stained with anti-HA antibodies. […] The cells were harvested and intracellular fluorescence was measured using a flow cytometer to measure ctCTLA-4 protein introduction efficiency in primary mouse CD4-T-cells.

CD4 T-cells = test: Inhibition of CD4 T-cell activation (CD25 expression) in mouse spleen cells (FACS); format: cell-based
Experimental: The present test was conducted to check whether or not the dNP2-TAMRA, dNP2-ctCTLA-4 fusion product and dNP2-ctCTLA-4-fm3 fusion product according to the present invention could inhibit activation of CD4 T-cells in the mouse model. At this time, CD25 was an activation marker which has an increasing expression level when T-cells were activated, and whether or not activation of CD4 T-cells was inhibited based on the amount of expressed CD25 was determined. Specifically, the test method was as follows.
A 96-well plate was coated with 0.1 μg of anti-CD3 and anti-CD28 antibodies in a cell incubator at 37° C. under […] for 5 hours. Then, isolated spleen cells of mice were seeded in a density of 2.5×10^5 on each well. The cells were treated with PBS or 0.1, 0.5, 1, 2 or 5 μM dNP2-TAMRA, dNP2-ctCTLA-4 or dNP2-ctCTLA-4-Fm, and then cultured in a cell incubator at 37° C. under […] for 24 hours. Then, the cells were stained with APC fluorescence-conjugated anti-CD4 mAb and PE fluorescence-fused anti-CD25 mAb at 4° C. for 20 minutes. Then, the cells produced through the aforementioned process were analyzed by a flow cytometer (FACS) to compare amounts of expressed CD25.

[3] = 0.1, 0.5, 1, 2 or 5 μM, 24 hours

| Substance | IL-2 expression inhibitory effects of ctCTLA-4 fragment peptides [1] | IL-2 expression inhibitory efficiency compared to WT ([1]; 24 hours) | other results |
| --- | --- | --- | --- |
| ctCTLA-4-fm2: peptide fragment having an amino acid sequence represented by Sequence ID No. 3 (YFIPIN; ctCTLA-4 fm2) | excellent IL-2 expression inhibitory effects |  |  |
| 2YF: ctCTLA-4 variant, Y residue of the 2Y part substituted by F (KMLKKRSPLTTGVYVKMPPTEPECEKQFQPFFIPIN; ctCTLA-4 2YF) |  | significant deterioration in IL-2 expression inhibitory efficiency |  |
| Hph-1-ctCTLA-4: fusion product of cell-penetrating peptide Hph-1 (Sequence ID No. 9) linked to the N-end of ctCTLA-4 peptide (YARVRRRGPRRKMLKKRSPLTTGVYVKMPPTEPECEKQFQPYFIPIN; Hph-1; ctCTLA-4) |  |  | intracellular transfer efficiency [2]: further improved |
| dNP2-ctCTLA-4-fm3: fusion product of fusion peptide ctCTLA-4-fm3 (Sequence ID No. 4) and cell-penetrating peptide dNP2 (Sequence ID No. 8) (KIKKVKKKGRKGSKIKKVKKKGRKYVKMPPTEPEYFIPIN; dNP2; ctCTLA-4 fm3) |  |  | intracellular transfer efficiency (FIG. 10) (CD4 T-cells; 0.1 μM): excellent intracellular transfer efficiency; CD25 expression in CD4 T-cells (CD4 T-cells; [3]): efficacy similar thereto; IL-2 expression inhibition [1, 3]: excellent inhibitory activity against IL-2 expression, comparable to the dNP2-ctCTLA-4 fusion protein |
| DYF: ctCTLA-4 variant, Y residues of both 1Y and 2Y parts substituted by F (KMLKKRSPLTTGVFVKMPPTEPECEKQFQPFFIPIN; ctCTLA-4 DYF) |  | significant deterioration in IL-2 expression inhibitory efficiency |  |
| ctCTLA-4: peptide of Sequence ID No. 1, 188th to 213th amino acid of the CTLA-4 protein cytoplasmic domain (KMLKKRSPLTTGVYVKMPPTEPECEKQFQPYFIPIN; ctCTLA-4) |  |  | intracellular transfer efficiency [2]: excellent intracellular transfer efficiency |
| ctCTLA-4-fm1: peptide fragment having an amino acid sequence represented by Sequence ID No. 2 (YVKMPPTEPE; ctCTLA-4 fm1) | excellent IL-2 expression inhibitory effects |  |  |
| 1YF: ctCTLA-4 variant, Y residue of the 1Y part substituted by F (KMLKKRSPLTTGVFVKMPPTEPECEKQFQPYFIPIN; ctCTLA-4 1YF) |  | significant deterioration in IL-2 expression inhibitory efficiency |  |
| ctCTLA-4-fm3: fusion peptide of Sequence ID No. 4, wherein Sequence ID No. 2 is combined with Sequence ID No. 3 (YVKMPPTEPEYFIPIN; ctCTLA-4 fm3) | excellent IL-2 expression inhibitory effects |  |  |
